US12673921B2, “Substituted fluorine-containing imidazole salt compound, preparation method therefor, pharmaceutical composition thereof and use thereof” (XIAMEN VIVOHEALTHS TECHNOLOGY CO., LTD., priority 2019, dated 2026)
“Also recorded” adds a separate entry of the source.

Tests used:
[1] = Liver microsome stability test, Beagle dog liver microsome; assay type: in vitro ADME; details: microsomes, 0.5 mg protein/mL microsome, 1 μM compound, 37° C., NADPH, read-out: DLM 0.5 T1/2 (min), half life in Beagle dog liver microsome
Method: The experimental steps were as follows: • 1. Preparation of working solution • 1.1 Intermediate solution: 5 μL of a 10 mM stock solution of sample or control was taken out, and diluted with 495 μl of methanol (Conc.: 100 μM, 99% MeOH). • 1.2 Working solution: 50 μL of the intermediate solution was taken out, and diluted with 450 μL of a 100 mM potassium phosphate buffer (Conc.: 10 μM, 9.9% MeOH). • 2. Preparation of NADPH cofactor
An appropriate amount of NADPH powder was weighed, and dissolved with a MgCl2 (10 mM) solution. • 3. Liver microsome • 3.1 Liver microsome information
• 3.2 Preparation: a microsome working solution with an appropriate concentration was prepared by using a 100 mM potassium phosphate buffer. • 4. Stop solution
Glacial acetonitrile, comprising 100 ng/ml Tolbutamide and 100 ng/ml Labetalol as internal standards. • 5. Experimental procedures • 5.1 10 μL of the working solution of sample or control was added per well to all plates (T0, T5, T10, T20, T30, T60, NCF60), except for the blank group; • 5.2 80 μL of the working solution of microsome was added per well to all plates, followed by incubation for 10 min at 37° C.; • 5.3 10 μL of a 100 mM potassium phosphate buffer was added per well to NCF60, followed by incubation at 37° C. and starting timer 1;
• 5.4 After preheating, 10 μL of NADPH was added per well to each plate, and reaction was started;
Final concentration of each component in the incubation medium:
• 5.6 300 μL of the stop solution was added per well to stop the reaction; • 5.7 The system was shaken for about 10 min; • 5.8 The samples were centrifuged (4000 rpm) at 4° C. for 20 min; • 5.9 To 8 new 96-well plates, 300 μL of HPLC water was added per well, then 100 μL of the supernatant was added, mixed and subjected to LC/MS/MS.
In the above table, HLM 0.5 T1/2 (min) refers to half life (min) of compounds in human liver microsome, DLM 0.5 T1/2 (min) refers to half life (min) of compounds in Beagle dog liver microsome.

high-fat-fed obese mice = test: In vivo efficacy in high-fat-fed obese mice (body weight, liver slice); set-up: species or system mouse; details: 90 days
Source text: […]

AMPK = AMPK activation in liver of treated high-fat-fed mice by western blot; assay type: in vivo, mouse; details: 90 days after s.c. administration
Source text: […]

With Cc1n(CCCCCCCCCCCC(F)(F)C(F)(F)C(F)(F)C(F)(F)C(F)(F)F)cc[n+]1Cc1c(Cl)cccc1Cl.[Cl-] [IB-33] the half-life at 1 μM [1] was over 145 min, the body weight (high-fat-fed obese mice; s.c. 0.05, 0.15, 0.3 mg/kg once every two days) was “significantly reduce the body weight; also recorded: effective in reducing body weight” and the “fat accumulation in the liver” value (high-fat-fed obese mice; s.c., HE stained liver slice) was “improve the fat accumulation level in the liver; also recorded: effective in reducing fat accumulation in the liver”. For the same compound, the “AMPK activation in the mice (p-AMPK Thr172, p-ACC Ser79 by western blot)” value (AMPK) was “effectively activate AMPK”.
